Earlier results on 1 substance are cited in patent US20170128595A1, “MICROBIAL GROWTH INDICATING MEDICAL DEVICES” (Indicator Systems International, Inc., priority 2013, published 2017).

For the data set the following is noted: fluorescein; ionization equilibrium gives pH-dependent absorption and emission over pH 5 to 9.

In the case of fluorescein, the pKa (commonly the negative logarithm of the acid dissociation constant) is reported as 6.4.
